According to patent US20250262315A1 (priority 2021, published 2025):

Legend:
human proteinase 3 [1] = experiment: human proteinase 3 in tris-buffered saline (TBS, pH 7.4); settings: 37° C., up to 24 h
[2] = Pooled healthy human plasma; settings: 37° C., up to 96 h
human cathepsin G [3] = experiment: human cathepsin G in tris-buffered saline (TBS, pH 7.4); settings: 37° C., up to 24 h
[4] = tested on: Human neutrophil elastase; experiment: human neutrophil elastase in tris-buffered saline (TBS, pH 7.4); settings: 37° C., up to 24 h
monkey cynomolgus plasma = settings: 37° C., up to 96 h
[5] = Plasma stability test using pyrene probes, BALB/c mouse plasma; format: in vitro ADME; settings: 37° C.; for stability in undiluted BALB/c plasma (in words): pyrene probes; for % intact probe, 48 h incubation, Mouse / % intact probe, 96 h incubation, Mouse: undiluted mouse plasma; for % intact probe, 96 h incubation, Mouse: 96 h (4-day)
Procedure: (§1) Plasma stability test using pyrene probes. Each test compound (10 mM in DMSO, 2 μL) was mixed with 1 μL of 1-pyrenemethylamine (10 mM in DMSO, internal standard) and incubated at 37° C. for 10 min. Pooled healthy human plasma, monkey cynomolgus plasma or BALB/c mouse plasma (197 μL, Innovative Research) was added to the mixture, followed by incubation at 37° C. Aliquots (5 μL) were collected at each time point (0, 48, and 96 h for human and monkey cynomolgus plasma; 0, 1, 6, 24, 48, and 96 h for BALB/c mouse plasma) and 25 μL of cold acetonitrile containing 1% formic acid was added to precipitate proteins. The mixture was then kept at −20° C. for 30 min. Precipitated proteins were separated by centrifugation (15,000×g, 4° C., 30 min) and supernatant of each sample was obtained and analyzed for quantification by analytical HPLC as described above. All assays were performed at least three times in technical duplicate, and data shown are representative of the replicates.

[6] = biological target: T1, human neutrophil elastase (Homo sapiens, UniProt P08246); experiment: Human neutrophil protease-mediated cleavage assay using pyrene probes: neutrophil elastase; format: biochemical; settings: 37° C.; for stability against human neutrophil elastase-mediated degradation (in words): pyrene probes; for % intact probe, Neutrophil elastase: after incubation for 24 h, n = 2, mean ± SEM; for stability against degradation mediated by neutrophil elastase or mouse plasma (in words): additional probes
T1 construct: purchased MilliporeSigma
T1 sequence (P08246 30-267): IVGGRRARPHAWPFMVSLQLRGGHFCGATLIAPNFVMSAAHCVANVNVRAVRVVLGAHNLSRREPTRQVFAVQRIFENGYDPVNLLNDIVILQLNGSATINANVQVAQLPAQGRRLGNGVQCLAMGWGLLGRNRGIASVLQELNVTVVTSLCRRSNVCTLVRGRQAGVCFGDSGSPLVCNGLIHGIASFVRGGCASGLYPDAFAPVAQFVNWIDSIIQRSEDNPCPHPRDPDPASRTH
Procedure: (§2) Human neutrophil protease-mediated cleavage assay using pyrene probes. Each test compound (10 mM in DMSO, 2 μL) was mixed with 97 μL of tris-buffered saline (TBS, pH 7.4) and 1 μL of 1-pyrenemethylamine (10 mM in DMSO, internal standard). The mixture was incubated at 37° C. for 10 min. Human neutrophil elastase (40 ng μL^−1, 20 μL in TBS, MilliporeSigma), human proteinase 3 (250 ng μL^−1, 5 μL in TBS, MilliporeSigma) or human cathepsin G (330 ng μL^−1, 5 μL in TBS, MilliporeSigma) was added to the test compound mixture in 1:1 volume ratio, followed by incubation at 37° C. Aliquots (5 μL) were collected at each time point (0, 1, 3, 6, and 24 h for elastase; 0 and 24 h for proteinase 3 and cathepsin G). Cold acetonitrile containing 1% formic acid (25 μL) was added to precipitate proteins. The mixture was then kept at −20° C. for 30 min. Precipitated proteins were pelleted by centrifugation (15,000×g, 4° C., 30 min) and supernatant of each sample was analyzed for quantification by analytical HPLC (UV absorbance at 342 nm). The amount of each probe was normalized to the peak area of the internal standard. All assays were performed at least three times in technical duplicate, and data shown are representative of the replicates.

[7] = Plasma stability test using pyrene probes, monkey plasma; format: in vitro ADME, cynomolgus monkey; settings: for % intact probe, 48 h incubation, Monkey / % intact probe, 96 h incubation, Monkey: undiluted monkey plasma, 37° C.
Procedure: as §1

[8] = Plasma stability test using pyrene probes, human plasma; format: in vitro ADME; settings: for % intact probe, 48 h incubation, Human / % intact probe, 96 h incubation, Human: undiluted human plasma, 37° C.
Procedure: as §1

human proteinase 3 [9] = biological target: T2, human proteinase 3 (Homo sapiens, UniProt P24158); experiment: Human neutrophil protease-mediated cleavage assay using pyrene probes: proteinase 3; format: biochemical; settings: for % intact probe, Proteinase 3: after incubation for 24 h, 37° C., n = 2, mean ± SEM; for resistance to cleavage by human proteinase 3 (in words): pyrene probes
T2 construct: purchased MilliporeSigma
T2 sequence (P24158 28-248): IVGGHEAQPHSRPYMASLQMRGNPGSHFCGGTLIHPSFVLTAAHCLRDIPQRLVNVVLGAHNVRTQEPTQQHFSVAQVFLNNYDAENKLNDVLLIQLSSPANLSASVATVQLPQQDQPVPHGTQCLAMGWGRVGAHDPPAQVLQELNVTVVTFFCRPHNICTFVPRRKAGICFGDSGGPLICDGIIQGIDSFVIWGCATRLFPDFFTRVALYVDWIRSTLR
Procedure: as §2

human cathepsin G [10] = biological target: T3, human cathepsin G (Homo sapiens, UniProt P08311); experiment: Human neutrophil protease-mediated cleavage assay using pyrene probes: cathepsin G; format: biochemical; settings: for % intact probe, Cathepsin G: after incubation for 24 h, 37° C., n = 2, mean ± SEM
T3 construct: purchased MilliporeSigma
T3 sequence (P08311 21-244): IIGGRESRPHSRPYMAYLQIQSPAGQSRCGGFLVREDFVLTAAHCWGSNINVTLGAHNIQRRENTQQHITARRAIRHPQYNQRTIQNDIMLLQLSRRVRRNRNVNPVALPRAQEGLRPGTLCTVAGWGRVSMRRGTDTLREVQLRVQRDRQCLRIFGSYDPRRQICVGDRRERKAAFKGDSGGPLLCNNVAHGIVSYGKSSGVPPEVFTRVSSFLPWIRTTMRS
Procedure: as §2

Substance: EGCit
- not cleaved (human proteinase 3 [1]): 98.0 ± 1.1 % intact probe after 24 h
- not cleaved [2]: 100.3 ± 5.5 % intact probe after 96 h
- not cleaved (human cathepsin G [3]): 100.0 ± 1.8 % intact probe after 24 h
- not cleaved [4]: 99.2 ± 0.3 % intact probe after 24 h
- not cleaved (monkey cynomolgus plasma): 98.8 ± 1.6 % intact probe after 96 h

Substance: Ac-Gly-Cit-PABC-sar-pyrene [probe 3f]
- stability in undiluted BALB/c plasma (in words) [5]: less stable than the EGCit probe 3a
- stability against human neutrophil elastase-mediated degradation (in words) [6]: marginal or almost no degradation

Substance: EVCit
- not cleaved [2]: 91.1 ± 1.1 % intact probe after 96 h
- cleaved bond [4]: valine-citrulline
- not cleaved (monkey cynomolgus plasma): 95.8 ± 1.8 % intact probe after 96 h

Substance: ELCit
- not cleaved [4]: marginal or almost no degradation

Substance: Ac-Glu-Ile-Cit-PABC-sar-pyrene [probe 3d]
- stability against human neutrophil elastase-mediated degradation (in words) [6]: complete degradation

Substance: Ac-Glu-Ala-Cit-PABC-sar-pyrene [probe 3b]
- stability in undiluted BALB/c plasma (in words) [5]: improved stability compared to EVCit probe 2
- stability against human neutrophil elastase-mediated degradation (in words) [6]: complete degradation

Substance: VCit-PABC-pyrene
- cleaved bond [4]: valine-citrulline, major

Substance: Ac-Glu-Val-(N-Me)Cit-PABC-sar-pyrene [EV(N-Me)Cit 3e]
- % intact probe, 48 h incubation, Monkey [7]: 97.8%
- % intact probe, 96 h incubation, Monkey [7]: 91.9%
- stability in undiluted BALB/c plasma (in words) [5]: improved stability compared to EVCit probe 2
- % intact probe, 48 h incubation, Mouse [5]: 37.8%
- % intact probe, 96 h incubation, Mouse [5]: 12.0%
- % intact probe, 48 h incubation, Human [8]: 99.5%
- % intact probe, 96 h incubation, Human [8]: 86.4%
- % intact probe, Proteinase 3 (human proteinase 3 [9]): 84.4 ± 0.9%
- resistance to cleavage by human proteinase 3 (in words) (human proteinase 3 [9]): partially degraded
- % intact probe, Cathepsin G (human cathepsin G [10]): 99.6 ± 0.3%
- % intact probe, Neutrophil elastase [6]: 99.0 ± 2.4%
- stability against human neutrophil elastase-mediated degradation (in words) [6]: marginal or almost no degradation

Substance: Ac-Val-(N-Me)Cit-PABC-sar-pyrene [S1d]
- stability against degradation mediated by neutrophil elastase or mouse plasma (in words) [6]: instability

Substance: Ac-Glu-Leu-Cit-PABC-sar-pyrene [probe 3c]
- stability against human neutrophil elastase-mediated degradation (in words) [6]: marginal or almost no degradation

Substance: Ac-Glu-Gly-Cit-PABC-sar-pyrene [EGCit 3a]
- degradation in monkey plasma (in words) ([7]; pyrene probes): completely withstood degradation
- % intact probe, 48 h incubation, Monkey [7]: 98.7%
- % intact probe, 96 h incubation, Monkey [7]: 98.8%
- stability in undiluted BALB/c plasma (in words) [5]: improved stability compared to EVCit probe 2
- % intact probe, 48 h incubation, Mouse [5]: 69.2%
- % intact probe, 96 h incubation, Mouse [5]: 40.3%
- % intact probe, 96 h incubation, Mouse ([5]; listed as EGCit probe 3a): 40%
- degradation in human plasma (in words) ([8]; pyrene probes): completely withstood degradation
- % intact probe, 48 h incubation, Human [8]: 96.5%
- % intact probe, 96 h incubation, Human [8]: 100.3%
- % intact probe, Proteinase 3 (human proteinase 3 [9]): 98.0 ± 1.1%
- resistance to cleavage by human proteinase 3 (in words) (human proteinase 3 [9]): completely intact
- % intact probe, Cathepsin G (human cathepsin G [10]): 100.0 ± 1.8%
- resistance to cleavage by cathepsin G (in words) (human cathepsin G [10]; pyrene probes): completely intact
- % intact probe, Neutrophil elastase [6]: 99.2 ± 0.3%
- stability against human neutrophil elastase-mediated degradation (in words) [6]: marginal or almost no degradation

Substance: GCit
- not cleaved [4]: marginal or almost no degradation

Substance: EV(N-Me)Cit-PABC-pyrene
- not cleaved (human cathepsin G [3]): 99.6 ± 0.3 % intact probe after 24 h
- not cleaved [4]: 99.0 ± 2.4 % intact probe after 24 h
- not cleaved (monkey cynomolgus plasma): 91.9 ± 1.2 % intact probe after 96 h

Substance: Ac-Glu-(N-Me)Val-Cit-PABC-sar-pyrene [S1b]
- stability against degradation mediated by neutrophil elastase or mouse plasma (in words) [6]: instability

Substance: Ac-Glu-Phe-Cit-PABC-sar-pyrene [S1a]
- stability against degradation mediated by neutrophil elastase or mouse plasma (in words) [6]: instability
